Assay results published in patent publication US10335503B2, “Compound that specifically binds to AMPA receptor” (Public University Corporation Yokohama City University, priority 2015, dated 2019).
*1 amine or outer side, *2 acyl side, *3 side chain or, on linkers, in order; H or OH if unused. Where a SMILES comes first, the peptide text is derived from it. Where no end group is shown, it is not given here. [ ]: non-standard residue; d: D form. NMeF = CN[C@@H](Cc1ccccc1)C(=O)O; Suc = O=C(CCC(=O)[*:2])[*:1]

How the values were obtained:
Details in all cases: Positive substance, concentration not given
Nicotinic = assay: Receptor binding panel: Nicotinic; set-up: species or system Human
Neurokinin NK1 = Neurokinin NK1 (Homo sapiens, UniProt P25103); assay: Receptor binding panel: Neurokinin NK1
Sequence of Neurokinin NK1 (P25103 whole entry): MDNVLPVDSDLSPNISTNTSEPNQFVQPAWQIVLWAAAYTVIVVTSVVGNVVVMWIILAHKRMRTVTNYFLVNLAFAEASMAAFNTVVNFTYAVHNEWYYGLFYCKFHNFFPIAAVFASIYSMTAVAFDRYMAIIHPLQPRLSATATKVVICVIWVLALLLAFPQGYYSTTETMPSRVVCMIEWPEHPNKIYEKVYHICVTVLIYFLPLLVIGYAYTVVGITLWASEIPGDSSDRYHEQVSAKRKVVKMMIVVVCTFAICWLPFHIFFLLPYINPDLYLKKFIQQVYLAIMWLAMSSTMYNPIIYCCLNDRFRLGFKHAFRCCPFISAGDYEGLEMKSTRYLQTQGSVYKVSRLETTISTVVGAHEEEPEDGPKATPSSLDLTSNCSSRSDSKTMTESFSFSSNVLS

Sigma σ1 = Sigma σ1 (Homo sapiens, UniProt Q99720); assay: Receptor binding panel: Sigma σ1
Sequence of Sigma σ1 (Q99720 whole entry): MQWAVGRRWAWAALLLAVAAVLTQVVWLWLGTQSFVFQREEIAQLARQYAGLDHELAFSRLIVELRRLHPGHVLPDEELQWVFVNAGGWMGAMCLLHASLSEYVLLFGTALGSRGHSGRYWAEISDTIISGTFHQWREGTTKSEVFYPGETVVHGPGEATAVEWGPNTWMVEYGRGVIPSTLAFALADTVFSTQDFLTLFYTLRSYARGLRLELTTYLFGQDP

Histamine H3 = Histamine H3 (Homo sapiens, UniProt Q9Y5N1); assay: Receptor binding panel: Histamine H3
Sequence of Histamine H3 (Q9Y5N1 whole entry): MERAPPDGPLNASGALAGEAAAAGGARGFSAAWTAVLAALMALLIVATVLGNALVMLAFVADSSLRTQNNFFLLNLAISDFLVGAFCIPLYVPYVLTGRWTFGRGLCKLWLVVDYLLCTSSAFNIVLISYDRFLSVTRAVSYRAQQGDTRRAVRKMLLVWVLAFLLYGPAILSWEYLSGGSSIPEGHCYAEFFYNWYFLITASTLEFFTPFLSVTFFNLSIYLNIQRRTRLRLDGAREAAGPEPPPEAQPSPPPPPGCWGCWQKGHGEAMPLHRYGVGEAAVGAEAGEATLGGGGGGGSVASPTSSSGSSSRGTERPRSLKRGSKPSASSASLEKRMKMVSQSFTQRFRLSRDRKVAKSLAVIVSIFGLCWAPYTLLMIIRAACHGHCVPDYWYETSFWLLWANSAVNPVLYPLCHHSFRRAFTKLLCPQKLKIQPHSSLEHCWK

Glutamate (AMPA) = assay: Receptor binding panel: Glutamate (AMPA)
Histamine H2 = Histamine H2 (Homo sapiens, UniProt P25021); assay: Receptor binding panel: Histamine H2
Sequence of Histamine H2 (P25021 whole entry): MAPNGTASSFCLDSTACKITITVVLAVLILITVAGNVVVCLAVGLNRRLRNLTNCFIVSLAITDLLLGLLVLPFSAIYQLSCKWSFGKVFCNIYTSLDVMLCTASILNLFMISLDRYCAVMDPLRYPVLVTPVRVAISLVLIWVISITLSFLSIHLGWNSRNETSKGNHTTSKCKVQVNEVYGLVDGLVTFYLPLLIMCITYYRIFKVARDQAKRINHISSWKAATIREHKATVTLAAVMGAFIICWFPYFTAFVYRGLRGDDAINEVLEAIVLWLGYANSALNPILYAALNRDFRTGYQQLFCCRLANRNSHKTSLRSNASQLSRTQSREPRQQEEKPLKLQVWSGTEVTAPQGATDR

GABA A (BZ central) = assay: Receptor binding panel: GABA A (BZ central)
Na channel site 2 = assay: Receptor binding panel: Na channel site 2
K Channel KATP = assay: Receptor binding panel: K Channel KATP
Sigma σ2 = Sigma σ2 (Homo sapiens, UniProt Q5BJF2); assay: Receptor binding panel: Sigma σ2
Sequence of Sigma σ2 (Q5BJF2 whole entry): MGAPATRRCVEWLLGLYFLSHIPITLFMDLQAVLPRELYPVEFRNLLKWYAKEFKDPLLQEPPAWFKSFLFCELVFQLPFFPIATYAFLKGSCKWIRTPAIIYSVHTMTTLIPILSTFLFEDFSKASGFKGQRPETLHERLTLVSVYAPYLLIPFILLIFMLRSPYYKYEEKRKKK

Serotonin transporter = Serotonin transporter (Homo sapiens, UniProt P31645); assay: Receptor binding panel: Serotonin transporter
Sequence of Serotonin transporter (P31645 whole entry): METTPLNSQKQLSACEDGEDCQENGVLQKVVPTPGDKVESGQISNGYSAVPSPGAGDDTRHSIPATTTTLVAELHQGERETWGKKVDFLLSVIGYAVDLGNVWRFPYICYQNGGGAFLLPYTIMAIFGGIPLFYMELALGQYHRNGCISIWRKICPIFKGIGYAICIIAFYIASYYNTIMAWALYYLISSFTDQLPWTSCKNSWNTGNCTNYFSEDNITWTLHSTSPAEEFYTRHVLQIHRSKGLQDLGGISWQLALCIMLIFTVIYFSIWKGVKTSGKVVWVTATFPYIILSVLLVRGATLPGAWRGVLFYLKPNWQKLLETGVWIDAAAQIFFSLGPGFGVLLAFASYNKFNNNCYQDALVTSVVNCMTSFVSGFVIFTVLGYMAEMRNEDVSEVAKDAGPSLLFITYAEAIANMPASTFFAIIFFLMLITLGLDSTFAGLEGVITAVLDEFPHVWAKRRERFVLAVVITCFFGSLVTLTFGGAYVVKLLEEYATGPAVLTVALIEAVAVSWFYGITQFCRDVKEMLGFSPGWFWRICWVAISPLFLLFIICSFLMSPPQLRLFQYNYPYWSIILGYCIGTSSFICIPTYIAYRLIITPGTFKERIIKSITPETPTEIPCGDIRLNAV

Glutamate (Kainate) = assay: Receptor binding panel: Glutamate (Kainate)
Serotonin 5HT2A = Serotonin 5HT2A (Homo sapiens, UniProt P28223); assay: Receptor binding panel: Serotonin 5HT2A
Sequence of Serotonin 5HT2A (P28223 whole entry): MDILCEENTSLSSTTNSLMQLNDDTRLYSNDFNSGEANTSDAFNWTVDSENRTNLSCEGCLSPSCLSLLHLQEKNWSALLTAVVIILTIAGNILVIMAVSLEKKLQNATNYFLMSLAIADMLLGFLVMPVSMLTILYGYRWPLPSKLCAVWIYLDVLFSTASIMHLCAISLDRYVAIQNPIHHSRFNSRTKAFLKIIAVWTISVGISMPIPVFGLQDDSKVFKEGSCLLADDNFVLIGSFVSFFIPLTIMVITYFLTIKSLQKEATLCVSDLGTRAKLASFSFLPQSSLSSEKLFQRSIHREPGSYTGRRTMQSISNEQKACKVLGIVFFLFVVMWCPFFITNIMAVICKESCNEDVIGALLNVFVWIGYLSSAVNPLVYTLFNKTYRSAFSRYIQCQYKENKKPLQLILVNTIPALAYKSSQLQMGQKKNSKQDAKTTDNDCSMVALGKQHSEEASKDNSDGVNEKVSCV

[1] = test system: Glutamate (NMDA agonist site); assay: Receptor binding panel: Glutamate (NMDA agonist site)
Leukotriene B4 = assay: Receptor binding panel: Leukotriene B4
Leukotriene D4 = assay: Receptor binding panel: Leukotriene D4
[2] = test system: Glutamate (NMDA glycine site); assay: Receptor binding panel: Glutamate (NMDA glycine site)
Melatonin MT1 = Melatonin MT1 (Homo sapiens, UniProt P48039); assay: Receptor binding panel: Melatonin MT1
GABA A (Agonist site) = assay: Receptor binding panel: GABA A (Agonist site)
Opiate δ = Opiate δ (Homo sapiens, UniProt P41143); assay: Receptor binding panel: Opiate δ
Sequence of Opiate δ (P41143 whole entry): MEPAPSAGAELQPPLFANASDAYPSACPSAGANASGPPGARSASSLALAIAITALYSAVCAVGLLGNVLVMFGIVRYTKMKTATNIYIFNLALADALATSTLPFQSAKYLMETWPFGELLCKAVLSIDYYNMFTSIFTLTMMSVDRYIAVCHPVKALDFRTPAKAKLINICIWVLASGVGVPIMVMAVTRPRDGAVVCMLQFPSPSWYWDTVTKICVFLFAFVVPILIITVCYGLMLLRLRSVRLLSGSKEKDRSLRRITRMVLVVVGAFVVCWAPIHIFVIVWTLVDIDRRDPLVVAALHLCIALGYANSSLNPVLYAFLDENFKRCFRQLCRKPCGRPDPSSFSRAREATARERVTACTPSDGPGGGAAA

α2C-Adrenergic = α2C-Adrenergic (Homo sapiens, UniProt P18825); assay: Receptor binding panel: α2C-Adrenergic
Sequence of α2C-Adrenergic (P18825 whole entry): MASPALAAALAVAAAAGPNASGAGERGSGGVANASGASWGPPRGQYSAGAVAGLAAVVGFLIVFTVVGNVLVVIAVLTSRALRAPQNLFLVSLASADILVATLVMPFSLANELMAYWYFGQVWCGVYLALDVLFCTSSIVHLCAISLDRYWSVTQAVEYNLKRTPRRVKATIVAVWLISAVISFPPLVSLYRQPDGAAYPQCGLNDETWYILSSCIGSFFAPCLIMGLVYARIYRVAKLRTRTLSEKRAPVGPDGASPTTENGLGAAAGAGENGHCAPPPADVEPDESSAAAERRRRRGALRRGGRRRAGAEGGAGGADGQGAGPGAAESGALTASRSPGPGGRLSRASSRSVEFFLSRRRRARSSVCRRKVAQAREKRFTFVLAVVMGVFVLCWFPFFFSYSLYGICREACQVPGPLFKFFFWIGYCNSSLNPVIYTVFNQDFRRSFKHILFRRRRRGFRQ

α2A-Adrenergic = α2A-Adrenergic (Homo sapiens, UniProt P08913); assay: Receptor binding panel: α2A-Adrenergic
Sequence of α2A-Adrenergic (P08913 whole entry): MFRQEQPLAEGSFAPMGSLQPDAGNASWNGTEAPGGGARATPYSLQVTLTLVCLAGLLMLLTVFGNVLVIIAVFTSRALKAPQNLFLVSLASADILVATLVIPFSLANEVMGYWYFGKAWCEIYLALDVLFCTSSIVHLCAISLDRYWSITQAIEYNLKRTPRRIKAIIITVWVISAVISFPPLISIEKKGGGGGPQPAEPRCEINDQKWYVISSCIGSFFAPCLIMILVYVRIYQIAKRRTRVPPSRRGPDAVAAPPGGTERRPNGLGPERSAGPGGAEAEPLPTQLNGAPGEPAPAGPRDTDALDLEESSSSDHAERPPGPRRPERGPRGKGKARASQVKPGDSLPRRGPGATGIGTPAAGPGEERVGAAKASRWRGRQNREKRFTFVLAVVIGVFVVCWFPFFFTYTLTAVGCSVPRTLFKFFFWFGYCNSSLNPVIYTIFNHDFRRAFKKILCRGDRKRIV

Neurokinin NK3 = Neurokinin NK3 (Homo sapiens, UniProt P29371); assay: Receptor binding panel: Neurokinin NK3
Sequence of Neurokinin NK3 (P29371 whole entry): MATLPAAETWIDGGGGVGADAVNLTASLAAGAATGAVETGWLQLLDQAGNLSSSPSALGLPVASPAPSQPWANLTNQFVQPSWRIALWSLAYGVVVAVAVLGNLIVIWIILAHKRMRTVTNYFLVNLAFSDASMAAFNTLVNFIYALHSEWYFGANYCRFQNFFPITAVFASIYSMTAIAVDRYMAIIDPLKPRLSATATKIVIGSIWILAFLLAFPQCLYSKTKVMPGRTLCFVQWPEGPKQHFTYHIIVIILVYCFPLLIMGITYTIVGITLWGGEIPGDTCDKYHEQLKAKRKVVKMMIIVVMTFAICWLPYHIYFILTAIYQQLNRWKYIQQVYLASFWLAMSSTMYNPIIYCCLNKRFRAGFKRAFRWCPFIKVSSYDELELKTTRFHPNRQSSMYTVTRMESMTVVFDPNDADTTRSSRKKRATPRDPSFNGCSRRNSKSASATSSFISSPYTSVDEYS

Serotonin 5HT3 = Serotonin 5HT3 (Homo sapiens, UniProt P46098); assay: Receptor binding panel: Serotonin 5HT3
Estrogen = assay: Receptor binding panel: Estrogen
Dopamine D2 short = Dopamine D2 short (Homo sapiens, UniProt P14416); assay: Receptor binding panel: Dopamine D2 short
Sequence of Dopamine D2 short (P14416 1-414 isoform P14416-2): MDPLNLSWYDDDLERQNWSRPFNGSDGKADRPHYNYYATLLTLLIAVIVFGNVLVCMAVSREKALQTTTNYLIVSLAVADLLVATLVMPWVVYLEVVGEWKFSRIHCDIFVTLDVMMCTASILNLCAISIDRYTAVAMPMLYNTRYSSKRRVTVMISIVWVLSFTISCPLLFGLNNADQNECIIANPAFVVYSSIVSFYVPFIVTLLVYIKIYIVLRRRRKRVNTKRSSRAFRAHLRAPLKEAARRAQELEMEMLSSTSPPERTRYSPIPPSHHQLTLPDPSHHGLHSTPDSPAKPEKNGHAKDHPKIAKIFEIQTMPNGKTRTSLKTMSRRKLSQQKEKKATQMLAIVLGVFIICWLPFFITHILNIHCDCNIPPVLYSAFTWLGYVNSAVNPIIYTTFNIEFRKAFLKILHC

[3] = test system: Glutamate (NMDA phencyclidine site); assay: Receptor binding panel: Glutamate (NMDA phencyclidine site)
CRF1 = molecular target: T1, CRF1 (Homo sapiens, UniProt P34998); assay: Receptor binding panel: CRF1
T1 sequence (P34998 24-415): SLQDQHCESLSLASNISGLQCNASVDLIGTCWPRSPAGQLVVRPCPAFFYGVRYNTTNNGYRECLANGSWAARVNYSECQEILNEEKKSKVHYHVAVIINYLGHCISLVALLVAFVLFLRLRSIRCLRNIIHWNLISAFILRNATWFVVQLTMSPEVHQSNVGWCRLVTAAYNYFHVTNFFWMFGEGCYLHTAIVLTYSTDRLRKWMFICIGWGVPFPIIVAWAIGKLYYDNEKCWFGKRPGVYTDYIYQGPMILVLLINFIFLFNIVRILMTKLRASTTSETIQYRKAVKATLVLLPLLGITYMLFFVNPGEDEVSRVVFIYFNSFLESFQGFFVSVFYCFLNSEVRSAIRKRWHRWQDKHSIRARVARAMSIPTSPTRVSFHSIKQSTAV

## Clc1ccc(C2CC3CCC2N3)cn1 (racemic) [(±)-Epibatidine, reference compound]
Nicotinic
  Inhibition (%): 98.46%

## Ic1ccccc1CN[C@@H]1C2CCN(CC2)[C@@H]1C(c1ccccc1)c1ccccc1 (racemic) [L-703,606, reference compound]
Neurokinin NK1
  Inhibition (%): 94.45%

## CC(C)=CCN1CCC2(C)c3cc(O)ccc3CC1C2C (single isomer, unassigned; (+)) [(+)-Pentazocine, reference compound]
Sigma σ1
  Inhibition (%): 100.00%

## C[C@@H](N)Cc1c[nH]cn1 [(R)(−)-α-Methyl histamine, reference compound]
Histamine H3
  Inhibition (%): 98.17%

## Cc1onc(O)c1C[C@H](N)C(=O)O [(S)-AMPA, reference compound]
Glutamate (AMPA)
  Inhibition (%): 100.00%

## CN/C(=N/CCSCc1nc[nH]c1C)NC#N [Cimetidine, reference compound]
Histamine H2
  Inhibition (%): 100.00%

## CN1C(=O)CN=C(c2ccccc2)c2cc(Cl)ccc21 [Diazepam, reference compound]
GABA A (BZ central)
  Inhibition (%): 100.00%

## CCCCOc1cc(C(=O)NCCN(CC)CC)c2ccccc2n1 [Dibucaine, reference compound]
Na channel site 2
  Inhibition (%): 97.37%

## COc1ccc(Cl)cc1C(=O)NCCc1ccc(S(=O)(=O)NC(=O)NC2CCCCC2)cc1 [Glybenclamide, reference compound]
K Channel KATP
  Inhibition (%): 100.00%

## O=C(CCCN1CCC(O)(c2ccc(Cl)cc2)CC1)c1ccc(F)cc1 [Haloperidol, reference compound]
Sigma σ2
  Inhibition (%): 100.00%

## CN(C)CCCN1c2ccccc2CCc2ccccc21 [Imipramine, reference compound]
Serotonin transporter
  Inhibition (%): 100.00%

## C=C(C)[C@H]1CN[C@H](C(=O)O)[C@H]1CC(=O)O [Kainic acid, reference compound]
Glutamate (Kainate)
  Inhibition (%): 100.00%

## O=C(c1ccc(F)cc1)C1CCN(CCn2c(=O)[nH]c3ccccc3c2=O)CC1 [Ketanserin, reference compound]
Serotonin 5HT2A
  Inhibition (%): 99.20%

## N[C@@H](CCC(=O)O)C(=O)O [L-Glutamic acid, reference compound]
[1]
  Inhibition (%): 100.00%

## CCCCC/C=C\C[C@@H](O)/C=C/C=C/C=C\[C@@H](O)CCCC(=O)O [Leukotriene B4, reference compound]
Leukotriene B4
  Inhibition (%): 98.89%

## CCCCC/C=C\C\C=C/C=C/C=C/[C@@H](SC[C@H](N)C(=O)NCC(=O)O)[C@@H](O)CCCC(=O)O [Leukotriene D4, reference compound]
Leukotriene D4
  Inhibition (%): 100.00%

## O=C(O)/C(=C/c1c(C(=O)O)[nH]c2cc(Cl)cc(Cl)c12)c1ccccc1 [MDL105,519, reference compound]
[2]
  Inhibition (%): 100.00%

## COc1ccc2[nH]cc(CCNC(C)=O)c2c1 [Melatonin, reference compound]
Melatonin MT1
  Inhibition (%): 100.00%

## NCc1cc(=O)[nH]o1 [Muscimol, reference compound]
GABA A (Agonist site)
  Inhibition (%): 97.63%

## Oc1ccc2c3c1O[C@H]1c4oc5ccccc5c4C[C@@]4(O)[C@@H](C2)N(CC2CC2)CC[C@]314 [Naltriben, reference compound]
Opiate δ
  Inhibition (%): 98.32%

## COC(=O)[C@H]1[C@H]2C[C@H]3c4[nH]c5ccccc5c4CCN3C[C@H]2CC[C@@H]1O [Rauwolscine, reference compound]
α2C-Adrenergic
  Inhibition (%): 100.00%
α2A-Adrenergic
  Inhibition (%): 100.00%

## CSCC[C@H](NC(=O)[C@H](CC(C)C)NC(=O)CNC(=O)[C@H](Cc1ccccc1)N(C)C(=O)[C@H](Cc1ccccc1)NC(=O)[C@H](CC(=O)O)NC(=O)CCC(=O)O)C(N)=O [Senktide, reference compound] (Suc-DF[NMeF]GLM-NH2)
Neurokinin NK3
  Inhibition (%): 98.43%

## CN1[C@@H]2CC[C@H]1C[C@@H](OC(=O)c1c[nH]c3ccccc13)C2 [Tropisetron, reference compound]
Serotonin 5HT3
  Inhibition (%): 99.80%

## C[C@]12CC[C@@H]3c4ccc(O)cc4CC[C@H]3[C@@H]1CC[C@@H]2O [β-Estradiol, reference compound]
Estrogen
  Inhibition (%): 100.00%

## (+)-Butaclamol [reference compound]
Dopamine D2 short
  Inhibition (%): 100.00%

## (+)-MK-801 [reference compound]
[3]
  Inhibition (%): 100.00%

## Urocortin human (DNPSLSIDLTFHLLRTLLELARTQSQRERAEQNRIIFDSV; ends and bridges not checked; UniProt P55089 83-122, looked up) [reference compound]
CRF1
  Inhibition (%): 100.00%
